Data as given in patent publication US20110159088A1, “ORAL PHARMACEUTICAL FOR BASED ON AT LEAST ONE ACTIVE PRINCIPLE WHOSE SOLUBILITY VARIES AS A FUNCTION OF THE GASTRIC pH CONDITIONS” (Flamel Technologies, S.A., priority 2005, published 2011).
Converted amounts (≈) assume the structure as drawn.

Experiment: physchem
Format: physicochemical
Conditions: 37 °C
Experimental: This solubility is measured in an aqueous medium at 37° C., maintained at the pH under consideration. The solubility of Irbesartan varies greatly in the gastric pH range: The solubility of Eprosartan varies greatly in the gastric pH range: The solubility of Acyclovir varies greatly in the gastric pH range: […]

[1] = pH 1.2, simulated gastric fluid

Row | SMILES | solubility [1] | solubility (pH 2, simulated gastric fluid) | solubility (pH 2.5, aqueous buffer) | solubility (pH 4.5, aqueous buffer) | solubility (pH 6.8, aqueous buffer) | solubility (pH 3, aqueous buffer) | solubility (pH 5.5, aqueous buffer)
1 | Nc1nc2c(ncn2COCCO)c(=O)[nH]1 [Acyclovir] | 10500 µg/mL (≈ 46600 µM) | 6000 µg/mL (≈ 26600 µM) | 3300 µg/mL (≈ 14700 µM) | 2600 µg/mL (≈ 11500 µM) | 2500 µg/mL (≈ 11100 µM) | – | –
2 | CCCCc1ncc(/C=C(\Cc2cccs2)C(=O)O)n1Cc1ccc(C(=O)O)cc1 [Eprosartan] | 795 µg/mL (≈ 1870 µM) | 142 µg/mL (≈ 334 µM) | – | 18 µg/mL (≈ 42.4 µM) | 1190 µg/mL (≈ 2810 µM) | 33 µg/mL (≈ 77.7 µM) | 15 µg/mL (≈ 35.3 µM)
3 | CCCCC1=NC2(CCCC2)C(=O)N1Cc1ccc(-c2ccccc2-c2nnn[nH]2)cc1 [Irbesartan] | 2420 µg/mL (≈ 5650 µM) | 362 µg/mL (≈ 845 µM) | – | 20 µg/mL (≈ 46.7 µM) | 666 µg/mL (≈ 1550 µM) | 48 µg/mL (≈ 112 µM) | 65 µg/mL (≈ 152 µM)
